Laboratory results as given in patent publication US20240316043A1, “BROMODOMAIN INHIBITORS FOR CANCER THERAPY” (University of Tennessee Research Foundation, priority 2023, published 2024).
“Also recorded” adds a separate entry of the source.

Columns and labels:
MT330 GBM cells = test: Cell death ELISA in MT330 GBM cells; type: cell-based; details: 72 hrs, FIG. 1
Procedure: Control cells were treated with vehicle (DMSO). Cell death was determined at 72 hr after treatment by a cell death ELISA that quantifies histone-complexed DNA fragments. […]
Parental and BRG1 knockout MT330 cells were treated with bleomycin (0.01 μM) and bromodomain inhibitors […]. After 72 hr, cell death was determined by cell death ELISA.
The biological activity of bromodomain inhibitors was assessed for the ability to enhance TMZ-induced cell death. In brief, MT330 cells were treated with […] of bromodomain inhibitors alone, or in combination with […] of TMZ for 72 hrs, and GBM cell death was determined by a commercial ELISA.

[1] = test system: TMZ-sensitive GBM cells and TMZ-resistant GBM cells; details: cited from earlier work
[2] = test system: 12 primary human cell based systems; details: cited from earlier work
LN229 GBM cells = test: γH2Ax immunostaining after TMZ; type: cell-based; design: dose or concentration left out as unconfirmed; details: 24 hrs, FIG. 11
Procedure: After treatment for 24 hrs, cells were fixed and immunostained for gH2Ax. Analysis of immunostaining was performed on a laser confocal microscope.
As TMZ is DNA damaging agent, we tested the ability of various bromodomain inhibitors to enhance TMZ-induced DNA damage as evidence by immunostaining of GBM cells with γH2Ax and examination of the staining on a confocal microscope. γH2AX is the phosphorylated version of the histone variant H2Ax and is a highly specific and sensitive marker for monitoring DNA damage initiation and resolution. […] Similar results were obtained with MT330 GBM cells.

MT330 cells = test: γH2Ax immunostaining after bleomycin; type: cell-based; details: FIG. 8
Procedure: After 1 hr of bleomycin treatment cell death, cells were fixed and immunostained for γH2Ax. Analysis of immunostaining was performed on at least 1,000 cells on the Lionheart FX imaging system.
Bleomycin is a chemotherapeutic drug that is used to treat various cancers. […] Thus, the ability of bleomycin to induce DNA damage as evidence by immunostaining of MT330 cells and LN229 with γH2Ax was tested. Quantification of cell staining was determined on the Lionheart FX imaging station.

BRG1/BRM = details: cited from earlier work
GBM tumors = details: intracranial GBM animal model; cited from earlier work

O=C(/C=C/N1C[C@H]2C[C@@H]1CN2c1ccccn1)c1ccccc1O [PFI-3]
enhancement of TMZ-induced cell death (MT330 GBM cells; 10 mM inhibitor in combination with 200 mM of TMZ): markedly increased the sensitivity of GBM cells to TMZ-induced cell death
cell death, inhibitor alone (MT330 GBM cells; 10 mM of bromodomain inhibitors alone): did not induce cell death
enhancement of antiproliferation activity and cell death-inducing effects of TMZ [1]: enhanced the antiproliferation activity and cell death-inducing effects of temozolomide
inhibitory effects against a range of cellular endpoints [2]: inhibitory effects were not observed
γH2Ax staining, inhibitor with TMZ (LN229 GBM cells): marked increase in γH2Ax staining
γH2Ax staining, PFI-3 alone (MT330 cells; PFI-3 (5 μM) alone): no effect on γH2Ax staining
γH2Ax staining, PFI-3 pretreatment followed by bleomycin (MT330 cells; pretreated for 1 hr with PFI-3 (5 μM) followed by bleomycin (0.5 and 2 μM)): increased number of both γH2Ax positive cells and signal intensity of staining; also recorded: sensitized GBM cells to DNA damage induced by Bleomycin
Kd (BRG1/BRM): < 0.1 µM
survival of animals bearing GBM tumors treated with TMZ (GBM tumors): increase in survival
